The values that follow come from US20260191192A1, “ANTIMICROBIAL COMPOSITIONS COMPRISING PELARGONIC ACID” (LANXESS Corporation, priority 2023, published 2026).

Test [1] relates to bacteria (Table 6 pool) and fungi. Description: Challenge test, overall result (full bacteria pool and fungi). The class given is cell-based. As for the experimental part:
(§1) The preservative activity in representative rinse-off and leave-on formulations was evaluated using a modification of the Personal Care Products Council (PCPC—formerly the Cosmetic, Toiletry and Fragrance Association) protocol (Machtiger, et al. 2001. Determination of the Efficacy of Preservation of Non-Eye Area Water Miscible Cosmetic and Toiletry Formulations: Collaborative Study. J of AOAC International. 84:1, 101-109).
(§2) This evaluation was conducted using a four week, two or three-cycle (i.e., two-cycle for personal care and three-cycle for home care applications) microbial preservative efficacy test (i.e., challenge test) at 25° C. to determine the preservative efficacy of each treatment. Phenoxyethanol, benzyl alcohol and pelargonic acid were tested alone and in various combinations. The pelargonic acid used in the testing was purchased from Sigma-Aldrich. Combinations of phenoxyethanol or benzyl alcohol with benchmark multifunctional booster compounds were also tested for comparison. The preservative and booster ingredients were dosed and mixed thoroughly at room temperature into various formulations, specifically different personal care formulations including a lotion (leave-on, Table 1), a micellar water (rinse-off, Table 2), and a body wash formulation (rinse-off, Table 3) and different home care formulations including a manual dishwashing formulation (Table 4) and a liquid laundry detergent formulation (Table 5). […] Carbomers are a commonly used synthetic rheological modifier in personal care products. The formulation below was made by heating the aqueous (A) and oil (B) phases separately to 75-80° C. The oil phase was then poured into the aqueous phase and mixed by a homogenizer at approximately 45° C. The formed oil-in-water emulsion was cooled to room temperature. Triethanolamine and/or diluted sodium hydroxide was used to adjust the final pH to 6.3 or 6.5 (as indicated in the examples below).
(§3) After dosing, the samples were divided into two separate five gram aliquots. One aliquot was inoculated with 50 μl of a diluted bacterial pool, and the second aliquot was inoculated with 50 μl of a diluted fungal pool as described below. Unpreserved product samples were included as a growth control.
(§4) For personal care products, a mixed bacterial inoculum was prepared using 24-hour cultures of the test bacteria (Table 6) grown in trypticase soy broth (TSB). For home care products, a mixed bacterial inoculum was prepared using 24-hour cultures of the test bacteria either from Table 6 (full pool) or Table 7 (simplified pool) grown in trypticase soy broth (TSB). Details are disclosed in the home care examples below. Equal volumes of the bacterial test strains were combined and diluted one to ten in phosphate buffer to obtain an inoculum of approximately 5×10^7 to 5×10^8 colony forming units per ml (cfu/ml). The test samples were inoculated with 1% of the mixed bacterial inoculum. For both personal care and home care products, a mixed fungal inoculum was prepared using cell suspensions of the yeast Candida albicans ATCC #10231 and the mold Aspergillus brasiliensis ATCC #16404 in phosphate buffer. Equal volumes of the fungal test strains were combined and diluted one to ten with phosphate buffer to obtain an inoculum of approximately 5×10^6 to 5×10^7 cfu/ml. The test samples were inoculated with 1% of the mixed fungal inoculum.
(§5) For personal care products, the samples were subjected to two microbial challenges at time zero and inoculated a second time after seven days. For home care products, the samples were subjected to three microbial challenges at time zero and inoculated a second and third time after seven and fourteen days, respectively. The number of microorganisms added to each sample was determined by a standard Most Probable Number (MPN) determination in Trypticase Soy Broth (TSB) for bacteria and Potato Dextrose Broth (PDB) for fungi. Samples were incubated at 25° C. for the test duration of four weeks.

For test [2], the system named is mixed fungal inoculum: Candida albicans ATCC #10231 and Aspergillus brasiliensis ATCC #16404. Description: Challenge test (preservative efficacy), mixed fungal inoculum. The class given is cell-based. The method, then: as §1, §2, §3, §4, §5
In test [3] the test system is mixed bacterial inoculum (Table 6). Description: Challenge test (preservative efficacy), mixed bacterial inoculum, full pool (Table 6). The format is cell-based. The method, then: as §1, §2, §3, §4, §5
Test [4] can be described thus: ZenBio Cupric Ion Chelating (CIC) Assay. The format is physicochemical. The settings on record: calculated from a EDTA calibration curve, Pelargonic Acid at 775 μM. As for the experimental part: The chelation property of the pelargonic acid was measured by using the ZenBio Cupric Ion Chelating (CIC) Assay (Cat #AOX-16). The assay measured the capacity of the pelargonic acid to chelate free cupric ions in solution, thereby inhibiting Cu(II) binding to pyrocatechol violet (PV) for generating a highly colored complex. The absorbance of the Cupric-PV complex was measured at a wavelength of 632 nm. The cupric ion chelating activity was determined as the percent of total PV over the Cu(II) binding. Ethylenediaminetetraacetic acid (EDTA), a well-known chelating agent, was used as a positive control. A series of EDTA with 7 different concentrations from 0 to 1000 μM were prepared and their corresponding absorbance measured and used as the calibration curve (Cupric ion chelating (%) vs. EDTA concentration). Percent cupric ion chelating was determined following the following calculations and Equation 1. The background absorbance value by averaging the absorbance values of the three background wells (no CuSO4 or sample). The average background absorbance was then subtracted from all the sample absorbance values. The maximal absorbance value (Absmax) was determined by averaging the absorbance values of the three wells containing CuSO4, PV and assay buffer. Abstest in Equation 1 is the absorbance of the test sample.
The calibration curve (Cupric ion chelating (%) vs. EDTA concentration) was fit by using a polynomial curve after log 10 transforming the concentrations (R2>0.98).

Test [5] deals with bacteria (Table 7 pool) and fungi. The experiment in a line: Challenge test, overall result (simplified bacteria pool and fungi). The settings on record: dosed 0.02 wt %. The format is cell-based. The method, then:
as §1, §2, §3, §4, §5

Test [6] deals with mixed bacterial inoculum for home care (Table 7). The experiment in a line: Challenge test (preservative efficacy), mixed bacterial inoculum, simplified pool (Table 7). The class given is cell-based, Pseudomonas aeruginosa, Staphylococcus aureus. The note with it: dosed 0.02 wt %. As for the experimental part:
as §1, §2, §3, §4, §5

[7] abbreviates: micellar water, pH 6.0, Example 1B, dosed 0.5 wt %.
[8] abbreviates: micellar water, pH 6.0, bacteria inoculation ~10^7 cfu/ml, Example 1B, dosed 0.5 wt %.
Where [9] appears, read: body wash, pH 6.5, Example 1E, dosed 0.5 wt %.
The mark [10] stands for this setting: lotion with carbomer, pH 6.3, Example 1A, dosed 0.4 wt %.
[11] abbreviates: micellar water, pH 6.0, Example 1B, dosed 0.3 wt %.
[12] abbreviates: micellar water, pH 6.0, Example 1C, dosed 0.3 wt %.
Setting [13] is: liquid laundry detergent, pH 7.5, Example 1H, dosed 0.02 wt %.
[14] abbreviates: lotion with carbomer, pH 6.5, Example 1I, dosed 0.016 wt %.

`CCCCC(O)CO` (stereo not shown) [1,2 hexanediol]: in test [1] (setting [7]), the “Overall Result” value is given as “Fail”. In addition, the “Fungi growth rating Result” value in test [2] (setting [7]) is recorded as “Fail (growth rating score caused by fungi of more than 2 at days 21-28 of the testing period)”. The “Bacteria growth rating Result” value in test [3] (setting [8]) is listed as “Pass (growth rating score caused by bacteria of 1 or less at days 21-28 of the testing period)”.
With `CCCCC(CC)COCC(O)CO` (stereo not shown) [2-ethyl-hexyl glycerin (EHG), 2-ethyl-hexyl glycerin], the “Overall Result” value in test [1] (setting [9]) and in test [1] (setting [7]) was “Fail” in each case. Also, the “Fungi growth rating Result” value in test [2] (setting [9]) and in test [2] (setting [7]) was “Fail (growth rating score caused by fungi of more than 2 at days 21-28 of the testing period)” throughout. Besides, the entries for the “Calculated EDTA equivalent” value in test [4] (listed as Ethylhexylglycerin) and in test [4] (listed as ethylhexylglycerin) were about 0 µM and ~ 0 μM, respectively. In addition, the “Bacteria growth rating Result” value in test [3] (setting [9]) and in test [3] (setting [8]) was “Fail (growth rating score caused by bacteria of 2 or more at days 21-28 of the testing period)” throughout.
With `OCc1ccccc1` [Benzyl Alcohol (BA), benzyl alcohol], the “Overall Result” value in test [1] (setting [9]), in test [1] (setting [10]), in test [1] (setting [11]) and in test [1] (setting [12]) was “Fail” in each case. The “Fungi growth rating Result” value in test [2] (setting [9]) is recorded as “Pass (growth rating score caused by fungi of 2 or less at days 21-28 of the testing period)”; in test [2] (setting [10]) it was “Fail (growth rating score caused by fungi of more than 2 at days 21-28 of the testing period)”; in test [2] (setting [11]) it was “Fail (growth rating score caused by fungi of more than 2 at days 21-28 of the testing period)”; in test [2] (setting [12]), “Fail (growth rating score caused by fungi of more than 2 at days 21-28 of the testing period)”. Moreover, the “Bacteria growth rating Result” value is “Fail (growth rating score caused by bacteria of 2 or more at days 21-28 of the testing period)” in test [3] (setting [9]); “Fail (growth rating score caused by bacteria of 2 or more at days 21-28 of the testing period)” in test [3] (setting [10]); “Fail (growth rating score caused by bacteria of 2 or more at days 21-28 of the testing period)” in test [3] (lotion with carbomer, pH 6.3, Example 1D, dosed 0.4 wt %); “Fail (growth rating score caused by bacteria of 2 or more at days 21-28 of the testing period)” in test [3] (lotion with carbomer, pH 6.3, Example 1D, dosed 0.8 wt %); “Pass (growth rating score caused by bacteria of 1 or less at days 21-28 of the testing period)” in test [3] (micellar water, pH 6.0, bacteria inoculation ~10^7 cfu/ml, Example 1B, dosed 0.3 wt %); “Fail (growth rating score caused by bacteria of 2 or more at days 21-28 of the testing period)” in test [3] (micellar water, pH 6.0, bacteria inoculation ~10^8 cfu/ml, Example 1C, dosed 0.3 wt %).
`CCCCCCCC(=O)NO` [Caprylhydroxamic acid (CHA), Caprylhydroxamic acid]: the “Overall Result” value is reported as “Fail” in test [5] (liquid laundry detergent, pH 7.5, Example 1G); “Fail” in test [5] (manual dishwashing formulation, pH 5.5, Example 1F); “Fail” in test [1] (setting [13]); “Fail” in test [1] (setting [14]). The “Fungi growth rating Result” value is recorded as “Fail (growth rating score caused by fungi of more than 2 at days 21-28 of the testing period)” in test [2] (liquid laundry detergent, pH 7.5, Example 1G, dosed 0.02 wt %); “Fail (growth rating score caused by fungi of more than 2 at days 21-28 of the testing period)” in test [2] (setting [13]); “Fail (growth rating score caused by fungi of more than 2 at days 21-28 of the testing period)” in test [2] (setting [14]); “Fail (growth rating score caused by fungi of more than 2 at days 21-28 of the testing period)” in test [2] (manual dishwashing formulation, pH 5.5, Example 1F, dosed 0.02 wt %). The “Bacteria growth rating Result” value in test [3] (liquid laundry detergent, pH 7.5, full bacteria pool, Example 1H, dosed 0.02 wt %) is reported as “Fail (growth rating score caused by bacteria of 2 or more at days 21-28 of the testing period)”; in test [3] (setting [14]), “Fail (growth rating score caused by bacteria of 2 or more at days 21-28 of the testing period)”; in test [6] (liquid laundry detergent, pH 7.5, simplified bacteria pool, Example 1G), “Fail (growth rating score caused by bacteria of 2 or more at days 21-28 of the testing period)”; in test [6] (manual dishwashing formulation, pH 5.5, simplified bacteria pool, Example 1F), “Fail (growth rating score caused by bacteria of 2 or more at days 21-28 of the testing period)”.
